Data published in PubChem BioAssay AID330 (DTP/NCI, 2004).
Values joined by “and” are separate entries in the source; they are usually repeats but may differ in a detail not shown here. Equal values may be shown once. Toxic doses and inconclusive results are not listed. How the source made its calls: active means survival T/C of 150% or more; inactive means T/C below 125% in these data.

Tested on: P388 leukemia ip, CD2F1 mice, survival T/C
Assay: NCI In Vivo Anticancer Drug Screen. Data for tumor model P388 Leukemia (intraperitoneal) in CD2F1 (CDF1) mice
Conditions: endpoint: median survival time, higher = longer survival
How it was run: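 Mice carrying the transplanted tumor received test compound or vehicle. Survival was recorded in each group, and the value is the treated-group measurement divided by that of the vehicle-treated control group.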

[1] = dose: 60.0 mg/kg/injection, schedule: Q01DX005 (ip), vehicle: Klucel (hydroxypropylcellulose) (HPC)
[2] = dose: 120.0 mg/kg/injection, schedule: Q01DX005 (ip), vehicle: Klucel (hydroxypropylcellulose) (HPC)
[3] = dose: 240.0 mg/kg/injection, schedule: Q01DX005 (ip), vehicle: Klucel (hydroxypropylcellulose) (HPC)
[4] = dose: 50.0 mg/kg/injection, schedule: Q01DX009 (ip), vehicle: saline with Tween-80
[5] = dose: 50.0 mg/kg/injection, schedule: Q01DX005 (ip), vehicle: saline with Tween-80
[6] = dose: 100.0 mg/kg/injection, schedule: Q01DX005 (ip), vehicle: saline with Tween-80
[7] = dose: 200.0 mg/kg/injection, schedule: Q01DX005 (ip), vehicle: saline with Tween-80
[8] = dose: 50.0 mg/kg/injection, schedule: Q01DX009 (ip), vehicle: saline
[9] = dose: 100.0 mg/kg/injection, schedule: Q01DX009 (ip), vehicle: saline
[10] = dose: 200.0 mg/kg/injection, schedule: Q01DX009 (ip), vehicle: saline
[11] = dose: 100.0 mg/kg/injection, schedule: Q04DX003 (ip), vehicle: saline with Tween-80
[12] = dose: 200.0 mg/kg/injection, schedule: Q04DX003 (ip), vehicle: saline with Tween-80

Measured: T/C

CCOc1ccc(C(C)c2cc3c(cc2OCC)OCO3)c(C)c1 (stereo unspecified)
inactive: dose: 50.0 mg/kg/injection, schedule: Q01DX005 (ip), vehicle: Klucel (hydroxypropylcellulose) (HPC) 109 % of control | dose: 100.0 mg/kg/injection, schedule: Q01DX005 (ip), vehicle: Klucel (hydroxypropylcellulose) (HPC) 103 % of control | dose: 200.0 mg/kg/injection, schedule: Q01DX005 (ip), vehicle: Klucel (hydroxypropylcellulose) (HPC) 112 % of control

CCOC(=O)CCC(=O)Oc1cccc2c1C(=O)c1c(O)cccc1C2=O
inactive: [1] 91 % of control | [2] 95 % of control | [3] 97 % of control

N=C(N)N1CCNc2ccc(Cl)cc2C1
inactive: dose: 100.0 mg/kg/injection, schedule: Q04DX002 (ip), vehicle: saline with Tween-80 96 % of control | dose: 200.0 mg/kg/injection, schedule: Q04DX002 (ip), vehicle: saline with Tween-80 91 % of control

CCOP(=O)(O)SP(=O)(O)OCC.[Zn+2]
inactive: dose: 25.0 mg/kg/injection, schedule: Q01DX009 (ip), vehicle: saline with Tween-80 109 % of control | [4] 103 % of control and 115 % of control

CNC(=O)OCc1nc(-c2ccccc2)n(C)c1COC(=O)NC
inactive: dose: 12.5 mg/kg/injection, schedule: Q01DX005 (ip), vehicle: distilled water + Tween-80 98 % of control | dose: 25.0 mg/kg/injection, schedule: Q01DX005 (ip), vehicle: distilled water + Tween-80 107 % of control | dose: 50.0 mg/kg/injection, schedule: Q01DX005 (ip), vehicle: distilled water + Tween-80 112 % of control | dose: 100.0 mg/kg/injection, schedule: Q01DX005 (ip), vehicle: distilled water + Tween-80 116 % of control | dose: 200.0 mg/kg/injection, schedule: Q01DX005 (ip), vehicle: distilled water + Tween-80 119 % of control

O=Cc1c[nH]c2ccc(Br)cc12
inactive: dose: 100.0 mg/kg/injection, schedule: Q01DX001 (ip), vehicle: other 100 % of control | dose: 200.0 mg/kg/injection, schedule: Q01DX001 (ip), vehicle: other 90 % of control | dose: 400.0 mg/kg/injection, schedule: Q01DX001 (ip), vehicle: other 100 % of control

Fc1ccc(NC(=S)SCc2ccccc2)cc1
inactive: dose: 50.0 mg/kg/injection, schedule: Q01DX009 (ip), vehicle: suspension in saline 101 % of control | dose: 100.0 mg/kg/injection, schedule: Q01DX009 (ip), vehicle: suspension in saline 101 % of control | dose: 200.0 mg/kg/injection, schedule: Q01DX009 (ip), vehicle: suspension in saline 101 % of control

CC(c1ccc(N2Cc3ccccc3C2=O)cc1)C(O)C(N)=O (stereo unspecified)
inactive: [5] 89 % of control | [6] 92 % of control | [7] 89 % of control

C/C=C(\C)[C@H](O)C(COCc1ccccc1)NS(=O)(=O)c1ccc(C)cc1 (stereo partly specified)
inactive: [1] 100 % of control | [2] 100 % of control | [3] 92 % of control

Cc1nonc1-c1ccc2c(c1)OCO2
inactive: dose: 25.0 mg/kg/injection, schedule: Q01DX009 (ip), vehicle: Klucel (hydroxypropylcellulose) (HPC) 110 % of control | dose: 50.0 mg/kg/injection, schedule: Q01DX009 (ip), vehicle: Klucel (hydroxypropylcellulose) (HPC) 105 % of control | dose: 100.0 mg/kg/injection, schedule: Q01DX009 (ip), vehicle: Klucel (hydroxypropylcellulose) (HPC) 106 % of control | dose: 200.0 mg/kg/injection, schedule: Q01DX009 (ip), vehicle: Klucel (hydroxypropylcellulose) (HPC) 105 % of control

CCN(CC)C(=O)N1C=CC(c2ccccc2)C=C1
inactive: dose: 60.0 mg/kg/injection, schedule: Q01DX005 (ip), vehicle: saline with Tween-80 103 % of control | dose: 120.0 mg/kg/injection, schedule: Q01DX005 (ip), vehicle: saline with Tween-80 106 % of control | dose: 240.0 mg/kg/injection, schedule: Q01DX005 (ip), vehicle: saline with Tween-80 108 % of control

NCC(O)c1cccc(C(F)(F)F)c1 (stereo unspecified)
inactive: [8] 92 % of control | [9] 100 % of control

Clc1nc2n[nH]nc2nc1Cl
inactive: dose: 3.13 mg/kg/injection, schedule: Q04DX003 (ip), vehicle: saline 100 % of control | dose: 6.25 mg/kg/injection, schedule: Q04DX003 (ip), vehicle: saline 90 % of control | dose: 12.5 mg/kg/injection, schedule: Q04DX003 (ip), vehicle: saline 95 % of control

CC(C)S(=O)c1ccc(Cl)cc1[N+](=O)[O-] (stereo unspecified)
inactive: [4] 99 % of control | dose: 100.0 mg/kg/injection, schedule: Q01DX009 (ip), vehicle: saline with Tween-80 99 % of control | dose: 200.0 mg/kg/injection, schedule: Q01DX009 (ip), vehicle: saline with Tween-80 100 % of control

CCCCCOC(=O)c1ccccc1OP(=O)(N(C)C)N(C)C
inactive: dose: 50.0 mg/kg/injection, schedule: Q01DX005 (ip), vehicle: saline 103 % of control | dose: 100.0 mg/kg/injection, schedule: Q01DX005 (ip), vehicle: saline 110 % of control

O=C(CCN1CCOCC1)Nc1ccc(F)cc1F
inactive: [5] 99 % of control | [6] 94 % of control | [7] 94 % of control

CCOC(=O)C1=C(C)NC(C)=C(C(=O)OCC)C1c1ccncc1
inactive: dose: 25.0 mg/kg/injection, schedule: Q01DX009 (ip), vehicle: other 103 % of control | dose: 50.0 mg/kg/injection, schedule: Q01DX009 (ip), vehicle: other 89 % of control | dose: 100.0 mg/kg/injection, schedule: Q01DX009 (ip), vehicle: other 96 % of control | dose: 200.0 mg/kg/injection, schedule: Q01DX009 (ip), vehicle: other 97 % of control | dose: 400.0 mg/kg/injection, schedule: Q01DX009 (ip), vehicle: other 95 % of control

O=C1c2cc3ccccc3cc2NC(O)c2cccn21 (stereo unspecified)
inactive: dose: 0.1 mg/kg/injection, schedule: Q01DX005 (ip), vehicle: water 96 % of control | dose: 0.2 mg/kg/injection, schedule: Q01DX005 (ip), vehicle: water 91 % of control | dose: 0.4 mg/kg/injection, schedule: Q01DX005 (ip), vehicle: water 100 % of control | dose: 0.8 mg/kg/injection, schedule: Q01DX005 (ip), vehicle: water 107 % of control | dose: 1.6 mg/kg/injection, schedule: Q01DX005 (ip), vehicle: water 116 % of control | dose: 5.0 mg/kg/injection, schedule: Q01DX005 (ip), vehicle: distilled water + Tween-80 100 % of control | dose: 10.0 mg/kg/injection, schedule: Q01DX005 (ip), vehicle: distilled water + Tween-80 107 % of control | dose: 20.0 mg/kg/injection, schedule: Q01DX005 (ip), vehicle: distilled water + Tween-80 100 % of control | dose: 40.0 mg/kg/injection, schedule: Q01DX005 (ip), vehicle: distilled water + Tween-80 99 % of control | dose: 80.0 mg/kg/injection, schedule: Q01DX005 (ip), vehicle: distilled water + Tween-80 101 % of control

CCN(CC)c1ccc(N=Nc2ccc(C)cc2)cc1
inactive: [9] 89 % of control | [10] 103 % of control | dose: 400.0 mg/kg/injection, schedule: Q01DX009 (ip), vehicle: saline 90 % of control

Cc1cc(CO)cc(CO)c1
inactive: dose: 100.0 mg/kg/injection, schedule: Q01DX001 (ip), vehicle: saline with Tween-80 104 % of control | dose: 200.0 mg/kg/injection, schedule: Q01DX001 (ip), vehicle: saline with Tween-80 101 % of control | dose: 400.0 mg/kg/injection, schedule: Q01DX001 (ip), vehicle: saline with Tween-80 100 % of control

O=C1CSC(c2ccc(Cl)c(Cl)c2)N1c1nncs1 (stereo unspecified)
inactive: [5] 103 % of control | [6] 93 % of control | [7] 99 % of control

CC(C)COC(=O)CN(CC(=O)OCC(C)C)c1ccccc1
inactive: [11] 109 % of control | [12] 104 % of control | dose: 400.0 mg/kg/injection, schedule: Q04DX003 (ip), vehicle: saline with Tween-80 113 % of control

S=c1nc[nH]c2c1ncn2C1C=CC=CC=C1
inactive: [5] 110 % of control | [6] 106 % of control

C=CCOCC1CO1 (stereo unspecified)
inactive: dose: 12.5 mg/kg/injection, schedule: Q01DX009 (ip), vehicle: saline 106 % of control | dose: 25.0 mg/kg/injection, schedule: Q01DX009 (ip), vehicle: saline 97 % of control | [8] 103 % of control | dose: 50.0 mg/kg/injection, schedule: Q04DX003 (ip), vehicle: saline with Tween-80 100 % of control | [9] 100 % of control | [11] 90 % of control | dose: 132.0 mg/kg/injection, schedule: Q04DX003 (ip), vehicle: saline with Tween-80 109 % of control | [10] 100 % of control | [12] 109 % of control | dose: 300.0 mg/kg/injection, schedule: Q04DX003 (ip), vehicle: saline with Tween-80 122 % of control
